In the first assay the target is T1, KRAS G12C 1-169, his-tagged protein, GDP-loaded (Homo sapiens, UniProt P01116, G12C).
T1 construct: KRAS G12C 1-169, his-tagged protein, GDP-loaded
Kind of assay: Covalent binding (% modification) to KRAS G12C by mass spectrometry. The following applies: covalent binding to KRAS G12C after a ten minute incubation period. The method, then: Test compounds were prepared as 10 mM stock solutions in DMSO (Fisher cat # BP-231-100). KRAS G12C 1-169, his-tagged protein, GDP-loaded was diluted to 2 μm in buffer (20 mM Hepes, 150 mM NaCl, 1 mM MgCl2). Compounds were tested for activity as follows:
Compounds were diluted to 50× final test concentration in DMSO in 96-well storage plates. Compound stock solutions were vortexed before use and observed carefully for any sign of precipitation. Dilutions were as follow: • For 100 μM final compound concentration, compounds were diluted to 5000 μM (5 μl 10 mM compound stock+5 μl DMSO and mixed well by pipetting. • For 30 μM final compound concentration, compounds were diluted to 1500 μM (3 μl 10 mM compound stock+17 μl DMSO) and mixed well by pipetting. • For 10 μM final compound concentration, compounds were diluted to 500 μM (2 μl 10 mM compound stock+38 μl DMSO) and mixed well by pipetting. 49 μl of the stock protein solution was added to each well of a 96-well PCR plate (Fisher cat #1423027). 1 μl of the diluted 50× compounds were added to appropriate wells in the PCR plate using 12-channel pipettor. Reactions were mixed carefully and thoroughly by pipetting up/down with a 200·1 multi-channel pipettor. […] 5 μl of 2% formic acid (Fisher cat # A117) in DI H2O was then added to each well followed by mixing with a pipette. The plate was then resealed with aluminum seal and stored on dry ice until analyzed as described below.
The above described assays were analyzed by mass spectrometry according to one of the following two procedures:
The MS instrument is set to positive polarity, 2 GHz resolution, and low mass (1700) mode and allowed to equilibrate for 30 minutes. The instrument is then calibrated, switched to acquisition mode and the appropriate method loaded.
After another 30 minute equilibration time, a blank batch (i.e., buffer) is run to ensure equipment is operating properly. The samples are thawed at 37° C. for 10 minutes, briefly centrifuged, and transfer to the bench top. Wells A1 and H12 are spiked with 1 uL 500 uM internal standard peptide, and the plates centrifuged at 2000×g for 5 minutes. The method is then run and masses of each individual well recorded.
The masses (for which integration data is desired) for each well are pasted into the platemap and exported from the analysis. Masses for the internal standards are exported as well. The data at 50 ppm is extracted for the +19 charge state, and identity of well A1 is assigned using the internal standard spike and integrated. Peak data is exported as a TOF list and the above steps are repeated individually, for the +20, 21, 22, 23, 24, and 25 charge states.
The masses and peak intensities of KRAS G12C protein species were measured using a Dionex RSLCnano system (Thermo Scientific) connected to a Q Exactive Plus mass spectrometer (Thermo Scientific).
[…] of sample was each loaded onto a Aeris™ 3.6 μm WIDEPORE C4 200 Å, LC Column 50×2.1 mm column maintained at 40° C. at a flow rate of 600 μl min^−1 with […] (0.1% formic acid in acetonitrile). The liquid chromatography conditions were 20% solvent B for 1 min, 20% to 60% solvent B for 1.5 min, 60% to 90% solvent for 0.5 min, 90% solvent B for 0.2 min, 90% to 20% solvent B for 0.2 min, and then equilibrated for 1.6 min before the following sample injection. The flow rate was maintained at 600 μl min^−1 throughout the sample analysis.
The mass spectrometer was operated in profile mode at a resolution of 17500, 5 microscans, using 50 msec max injection time and an AGC target of 1e6, and a full mass range from 800-1850 m/z was recorded. The HCD trapping gas was optimized for maximum sensitivity for intact proteins. The ionization method was electrospray ionization, which used a spray voltage of 4 kV, sheath gas flow set to 50 au, auxiliary gas flow set to 10 au and sweep gas flow set to 1 au. […]
As to `C=CC(=O)N1CCN(c2nc(N)nc3c(F)c(-c4c(O)cccc4F)c(Cl)cc23)C[C@H]1C` [Compound 1, 1-((2R)-4-(2-amino-6-chloro-8-fluoro-7-(2-fluoro-6-hydroxyphenyl)quinazolin-4-yl)-2-methylpiperazin-1-yl)prop-2-en-1-one], the Binding % result is reported as “++ (++ indicates binding activity from 50 to 90%)”.
The same measure, in the same setting: under `C=CC(=O)N1C[C@H](C)N(c2nc(N3CC(N(C)C)C3)nc3c(F)c(-c4c(C)ccc5cn[nH]c45)c(Cl)cc23)C[C@H]1C` (atropisomer, axis not shown) [Compound 73, 1-((2R,5S)-4-((S)-6-chloro-2-(3-(dimethylamino)azetidin-1-yl)-8-fluoro-7-(6-methyl-1H-indazol-7-yl)quinazolin-4-yl)-2,5-dimethyl-piperazin-1-yl) prop-2-en-1-one] stands “+ (+ indicates binding activity up to 50%)”.
Consider `C=CC(=O)N1C[C@H](C)N(c2nc(NC3CCN(C4CC4)CC3)nc3c(F)c(-c4c(C)ccc5[nH]ncc45)c(Cl)cc23)C[C@H]1C` [Compound 50, 1-((2R,5S)-4-(6-chloro-2-((1-cyclopropyl-piperidin-4-yl)amino)-8-fluoro-7-(5-methyl-1H-indazol-4-yl)quinazolin-4-yl)-2,5-dimethyl-piperazin-1-yl) prop-2-en-1-one], for which the Binding % entry is on record as “++ (++ indicates binding activity from 50 to 90%)”.
The same measure, in the same setting: under `C=CC(=O)N1C[C@@H](C)N(c2nc(NC3CCN(C4CC4)CC3)nc3c(F)c(-c4c(C)ccc5cn[nH]c45)c(Cl)cc23)[C@@H](C)C1` [Compound 43, 1-((3S,5R)-4-(6-chloro-2-((1-cyclopropyl-piperidin-4-yl)amino)-8-fluoro-7-(6-methyl-1H-indazol-7-yl)quinazolin-4-yl)-3,5-dimethyl-piperazin-1-yl) prop-2-en-1-one] stands “++ (++ indicates binding activity from 50 to 90%)”; under `C=CC(=O)N1C[C@H](C)N(c2nc(OCCN3CC(F)(F)C3)nc3c(F)c(-c4c(O)cccc4F)c(Cl)cc23)C[C@H]1C` (atropisomer, axis not shown) [Compound 83, 1-((2R,5S)-4-((R)-6-chloro-2-(2-(3,3-difluoroazetidin-1-yl)ethoxy)-8-fluoro-7-(2-fluoro-6-hydroxyphenyl)quinazolin-4-yl)-2,5-dimethyl-piperazin-1-yl) prop-2-en-1-one], “+ (+ indicates binding activity up to 50%)”.
Same read-out and setting: for `C=CC(=O)N1C[C@@H](C)N(c2nc(OCCN3CC(F)(F)C3)nc3c(F)c(-c4c(C)ccc5[nH]ncc45)c(Cl)cc23)[C@@H](C)C1` [Compound 45, 1-((3S,5R)-4-(6-chloro-2-(2-(3,3-difluoroazetidin-1-yl)ethoxy)-8-fluoro-7-(5-methyl-1H-indazol-4-yl)quinazolin-4-yl)-3,5-dimethyl-piperazin-1-yl) prop-2-en-1-one] the value was “++ (++ indicates binding activity from 50 to 90%)”; for `C=CC(=O)N1[C@H](C)CN(c2nc(N3CC(O)C3)nc3c(F)c(-c4c(O)cccc4F)c(Cl)cc23)C[C@@H]1C` [Compound 35, 1-((2R,6S)-4-(6-chloro-8-fluoro-7-(2-fluoro-6-hydroxyphenyl)-2-(3-hydroxy-azetidin-1-yl)quinazolin-4-yl)-2,6-dimethyl-piperazin-1-yl) prop-2-en-1-one], “++ (++ indicates binding activity from 50 to 90%)”.

Staying with this assay, now noted: covalent binding to KRAS G12C after a three minute incubation period.
On to `C=CC(=O)N1C[C@H](C)N(c2nc(OCCCN(C)C)nc3c(F)c(-c4cc(O)cc5ccccc45)c(Cl)cc23)C[C@H]1C` [Compound 181, 1-((2R,5S)-4-(6-chloro-2-(3-(dimethylamino)propoxy)-8-fluoro-7-(3-hydroxy-naphthalen-1-yl)quinazolin-4-yl)-2,5-dimethyl-piperazin-1-yl) prop-2-en-1-one], for which the Binding % result is “+++ (+++ indicates binding activity greater than 90%)”.
Same read-out and setting: under `C=CC(=O)N1C[C@H](C)N(c2nc(N3CC(N(C)C4CC4)C3)nc3c(F)c(-c4c(O)cccc4F)c(Cl)cc23)C[C@H]1C` [Compound 106, 1-((2R,5S)-4-(6-chloro-2-(3-(cyclopropyl (methyl)amino)azetidin-1-yl)-8-fluoro-7-(2-fluoro-6-hydroxyphenyl)quinazolin-4-yl)-2,5-dimethyl-piperazin-1-yl) prop-2-en-1-one] stands “++ (++ indicates binding activity from 50 to 90%)”.
Still for that read-out and setting: for `C=CC(=O)N1C[C@H](C)N(c2nc(N3CC4(CCO4)C3)nc3c(F)c(-c4c(C)ccc5[nH]ncc45)c(Cl)cc23)C[C@H]1C` [Compound 193, 1-((2R,5S)-4-(6-chloro-8-fluoro-7-(5-methyl-1H-indazol-4-yl)-2-(1-oxa-6-azaspiro[3.3]heptan-6-yl)quinazolin-4-yl)-2,5-dimethyl-piperazin-1-yl) prop-2-en-1-one] the value was “++ (++ indicates binding activity from 50 to 90%)”.
On the same count and under the same terms, for `C=CC(=O)N1C[C@H](C)N(c2nc(OCCCN(C)C)nc3c(F)c(-c4c(O)ccc5ccccc45)c(Cl)cc23)C[C@H]1C` [Compound 224, 1-((2R,5S)-4-(6-chloro-2-(3-(dimethylamino)propoxy)-8-fluoro-7-(2-hydroxy-naphthalen-1-yl)quinazolin-4-yl)-2,5-dimethyl-piperazin-1-yl) prop-2-en-1-one] the value was “++ (++ indicates binding activity from 50 to 90%)”.
As to `C=CC(=O)N1CCN(c2nc(CNCc3ncccn3)nc3c(F)c(-c4c(O)cccc4F)c(Cl)cc23)C[C@H]1C` [Compound 95, 1-((2R)-4-(6-chloro-8-fluoro-7-(2-fluoro-6-hydroxyphenyl)-2-(((pyrimidin-2-ylmethyl)amino)methyl)quinazolin-4-yl)-2-methyl-piperazin-1-yl) prop-2-en-1-one], the Binding % result was “++ (++ indicates binding activity from 50 to 90%)”.
Same read-out and setting: under `C=CC(=O)N1C[C@H](C)N(c2nc(OCCN3CCC(F)(F)C3)nc3c(F)c(-c4c(C)ccc5[nH]ncc45)c(Cl)cc23)C[C@H]1C` [Compound 209, 1-((2R,5S)-4-(6-chloro-2-(2-(3,3-difluoropyrrolidin-1-yl)ethoxy)-8-fluoro-7-(5-methyl-1H-indazol-4-yl)quinazolin-4-yl)-2,5-dimethyl-piperazin-1-yl) prop-2-en-1-one] stands “+++ (+++ indicates binding activity greater than 90%)”; under `C=CC(=O)N1C[C@H](C)N(c2nc(Oc3cnn(C)c3)nc3c(F)c(-c4c(O)cccc4F)c(Cl)cc23)C[C@H]1C` [Compound 225, 1-((2R,5S)-4-(6-chloro-8-fluoro-7-(2-fluoro-6-hydroxyphenyl)-2-(1-methyl-1H-pyrazol-4-yloxy)quinazolin-4-yl)-2,5-dimethyl-piperazin-1-yl) prop-2-en-1-one], “++ (++ indicates binding activity from 50 to 90%)”.
For `C=CC(=O)N1C[C@H](C)N(c2nc(OCCc3ncccn3)nc3c(F)c(-c4c(C)ccc5[nH]ncc45)c(Cl)cc23)C[C@H]1C` [Compound 197, 1-((2R,5S)-4-(6-chloro-8-fluoro-7-(5-methyl-1H-indazol-4-yl)-2-(2-(pyrimidin-2-yl)ethoxy)quinazolin-4-yl)-2,5-dimethyl-piperazin-1-yl) prop-2-en-1-one], the Binding % result is reported as “+++ (+++ indicates binding activity greater than 90%)”.

The values are drawn from patent publication US10646488B2 (Araxes Pharma LLC, priority 2016, dated 2020).
